# Test results: US20140031296A1, “NEW SYNTHETIC PEPTIDES AND THEIR USE” (PERGAMUM AB, priority 2011, published 2014)
# “Also recorded” adds a separate entry of the source.
# Legend:
# S. pyogenes (CCUG 4207) = experiment: MMC99 assay, S. pyogenes; format: cell-based
# Procedure: (§1) The antimicrobial effects of the peptides 232 (SEQ ID NO: 78), and 220 (SEQ ID NO:67) were analysed by MMC99 (minimal microbicidal concentration) assay against S. aureus (CCUG 1800), MRSA (CCUG 41879), P. aeruginosa (ATCC 15442), E. coli (CCUG 31246), S. pyogenes (CCUG 4207), P. acnes (CCUG 1794T), S. epidermidis (ATCC12228), K. pneumoniae (ATCC 13883), A. baumannii (ATCC 19606), and C. albicans (ATCC 64549). The peptides were purchased from Biopeptide Company (San Diego, Calif., USA) and Bachem AG (Bubendorf, Switzerland) and results are presented in Table 8A and 8B respectively.
# (§2) Peptides were serially diluted in two different assay medium, 1% BHI medium (brain-heart infusion medium) or 50% heat inactivated simulated wound fluid (SWF), and thereafter incubated with the microorganisms for 2 hours. Drops of the suspension were placed on blood agar plates. The MMC99 values, i.e. the lowest peptide concentration needed to achieve a 99% reduction of viable microorganisms, were recorded. As presented in Table 8, all the peptides have the ability to kill microorganisms frequently appearing in infections.
# S. aureus = experiment: Antimicrobial effect in infected wounds, ex vivo model on pig skin; details: S. aureus in PBS/serum (50/50), peptide in H2O 0.1, 0.5 and 2 mg/ml, single administration, 4 hours
# Source text: (§3) FIG. 5. Dose response effect of, peptide 232 (SEQ ID NO 78)(A) and peptide 220 (SEQ ID NO 67)(B) on bacterial colonization of infected wounds in pig skin. […] Results are presented as relative bacterial survival (%) compared to control group±SEM (n=10 wounds). Statistical significance was estimated by Student's t test. *=p<0.05, **=p<0.01, ***=p<0.001.
# The antimicrobial effects of the peptide 232 (SEQ ID NO: 78), and the peptide 220 (SEQ ID NO:67) were investigated in an ex vivo model on pig skin. The wounds were inoculated with S. aureus in the presence of PBS/Serum 50/50. Two hours after inoculation the wounds were treated with a single administration of the peptide or placebo (H2O). Four hours after the treatment bacteria were harvested and viable counts of each wound were determined.
# P. acnes (CCUG 1794T) = experiment: MMC99 assay, P. acnes; format: cell-based
# Procedure: as §1, §2
# MRSA (CCUG 41879) = experiment: In vivo antimicrobial effect in excision wound model in rats; set-up: species or system rat; details: peptide in H2O 0.1, 0.5 and 2 mg/ml, single administration, 2 hours
# Source text: as §3, with “4. Dose-response” for “5. Dose response”, “of” for “of,”, “infected excision” for “infected”, “rats.” for “pig skin.”, “(n=15” for “(n=10”
# The in vivo antimicrobial effects of the peptide 232 (SEQ ID NO: 78), and the peptide 220 (SEQ ID NO:67) were investigated in an excision wound model in rats. The wounds were inoculated with methicillin resistant S. aureus (MRSA) for two hours, followed by a single administration of peptide or control (H2O) for two hours before termination and harvest of the bacteria.
# S. aureus (CCUG 1800) = experiment: Minimal microbicidal concentration (MMC99) assay, S. aureus; format: cell-based; details: for MMC99: S. aureus, Example 3; for MMC99 μM in 1% BHI medium / MMC99 μM in 50% SWF: screen 2, 2 hours; for MMC99 μM in 50% SWF: 50% heat inactivated simulated wound fluid
# Procedure: Antimicrobial Activity was Measured as Bactericidal Effect on S. aureus Using Minimal Microbicidal Concentration, MMC99, Assay)
# S. aureus (#1800; CCUG, Gothenburg, Sweden) cultured on blood-agar plates [Columbia agar (Oxoid, Basingstoke, UK) supplemented with 5% defibrinated horse blood (National Veterinary Institute (SVA), Uppsala, Sweden)] were transferred to brain heart infusion broth (3.7% BHI; Difco, BD Diagnostics, Franklin Lakes, N.J., USA) and incubated in a shaker at 250 rpm+37° C. over night. The culture was thereafter be diluted 1:10 in fresh BHI broth and incubated for additional two hours to reach log-phase growth. The bacteria were pelleted and suspended in 1% BHI medium (BHI broth diluted 100 times in ultra-pure water) to a concentration of 10^7 bacteria/ml as estimated by measuring optical density at 600 nm. Peptides were serially diluted by two-fold steps from 160 μM to 1.25 μM in 1% BHI medium. The peptides (100 μl) were thereafter incubated with bacteria (5 μl á 10^7 bact./ml) for 2 hours at +37° C. Drops (5 μl) of the suspension were placed on blood agar plates. The blood agar plates were incubated over night at +37° C. The MMC99 values, i.e. the lowest peptide concentration needed to achieve a 99% reduction of viable bacteria, were recorded (Table 3). The concentration of the bacterial suspension used in the assay was confirmed by viable counts on blood agar plates.
# S. aureus (#1800; CCUG, Gothenburg, Sweden) cultured on blood-agar plates [Columbia agar (Oxoid, Basingstoke, UK) supplemented with 5% defibrinated horse blood (National Veterinary Institute (SVA), Uppsala, Sweden)] were transferred to brain heart infusion broth (3.7% BHI; Difco, BD Diagnostics, Franklin Lakes, N.J., USA) and incubated in a shaker at 250 rpm+37° C. over night. The culture was thereafter be diluted 1:10 in fresh BHI broth and incubated for additional two hours to reach log-phase growth. The bacteria were pelleted and suspended in 1% BHI medium (BHI broth diluted 100 times in ultra-pure water) to a final concentration of 10^7 bacteria/ml as estimated by measuring optical density at 600 nm.
# Peptides were serially diluted by two-fold steps from 400 μM to 0.78 μM in either 1% BHI medium or in 50% heat inactivated simulated wound fluid [SWF, containing 1 part 0.1% peptone (Oxoid, Basingstoke, UK) in saline and 1 part fetal bovine serum, diluted 2 times in ultra-pure water].
# The peptides (100 μl) were thereafter incubated with bacteria (5 μl a 10^7 bact./ml) for 2 hours at +37° C. Drops (5 μl) of the suspension were placed on blood agar plates. The blood agar plates were incubated over night at +37° C. The MMC99 values, i.e. the lowest peptide concentration needed to achieve a 99% reduction of viable bacteria were recorded (Table 6). The concentration of the bacterial suspension used in the assay was confirmed by viable counts on blood agar plates.
# as §1
# as §2, with “infections. […]” for “infections.”
Sequence,MMC99 (S. pyogenes (CCUG 4207); 1% BHI) [µg/mL],MMC99 (S. pyogenes (CCUG 4207); 50% SWF) [µg/mL],bacterial colonization of infected wounds in pig skin (bacterial counts vs control) (S. aureus),MMC99 (P. acnes (CCUG 1794T); 1% BHI) [µg/mL],MMC99 (P. acnes (CCUG 1794T); 50% SWF) [µg/mL],bacterial colonization of infected excision wounds (bacterial counts vs control) (MRSA (CCUG 41879)),MMC99 (S. aureus (CCUG 1800); 1% BHI) [µg/mL],MMC99 (S. aureus (CCUG 1800); 50% SWF) [µg/mL],MMC99 μM in 1% BHI medium (S. aureus (CCUG 1800)) [µM],MMC99 μM in 50% SWF (S. aureus (CCUG 1800)) [µM]
QSLARKLFQWLRNLRKVA [Peptide 220],<3,50,significant reduction in bacterial counts; also recorded: highly effective anti-infectious agents when applied locally,<3,100,significant reduction in bacterial counts; also recorded: pronounced antimicrobial effect,7,28,12.5,25
RRLWRRWMRKVL [Peptide 232],<3,>200,significant reduction in bacterial counts; also recorded: highly effective anti-infectious agents when applied locally,6,>200,significant reduction in bacterial counts; also recorded: pronounced antimicrobial effect,5,44,12.5,25
